Measurements: patent US20060040884A1, “Antisense oligonucleotides directed to genes regulated by trapoxin-induced HDAC inhibition” (priority 2001, published 2006)
Square brackets hold non-standard residues; d marks the D form. Peptide text beside a SMILES is read from it. ξ: configuration not given here. Aoe(9ξ) = N[C@@H](CCCCCC(=O)C1CO1)C(=O)O; dPip = O=C(O)[C@H]1CCCCN1

Tests used:
RhoB promoter = RhoB promoter luciferase reporter assay in transfected H1299 cells treated with TPX
p21waf1 = assay: Immunoblot detection of p21waf1 protein induction in response to trapoxin A; type: cell-based, human; conditions: H1299 cells, 48 h
Protocol: (§1) Detection of p21^waf1 and RhoB protein induction in response to trapoxin A treatment. […] Whole lysates are prepared in triple detergent lysis buffer (50 mM Tris, pH 8, 150 mM NaCl, 0.02% NaN3, 0.1% SDS, 1% Nonidet P-40, 0.5% sodium deoxycholate, 100 μg/ml phenylmethylsulfonyl fluoride, 1 μg/ml aprotinin) and proteins are separated by SDS-polyacrylamide electrophoresis, electrophoretically transferred to nitrocellulose membranes, and incubated with anti-p21^waf1 (BD Pharmingen, San Jose, Calif.) or anti-RhoB (Santa Cruz Biotechnologies, Santa Cruz Calif.). Immunoreactive proteins are visualized using ECL chemiluminescence system (Amersham Pharmacia Biotech., Piscataway, N.J.).

RhoB = assay: Western/immunoblot detection of RhoB protein in TPX-treated H1299 cells; type: cell-based, human; conditions: 30 nM
Protocol: as §1
H1299 non-small lung carcinoma cells are treated with 30 nM trapoxin A or 0.1% dimethysulphoxide or untreated for 0, 8, 24 and 48 h for RhoB. Whole lysates are prepared in triple detergent lysis buffer (50 mM Tris, pH 8, 150 mM NaCl, 0.02% NaN3, 0.1% SDS, 1% Nonidet P-40, 0.5% sodium deoxycholate, 100 μg/ml phenylmethylsulfonyl fluoride, 1 μg/ml aprotinin) and proteins are separated by SDS-polyacrylamide electrophoresis, electrophoretically transferred to nitrocellulose membranes, and incubated with anti-RhoB (Santa Cruz Biotechnologies, Santa Cruz Calif.). Immunoreactive proteins are visualized using ECL chemiluminescence system (Amersham Pharmacia Biotech., Piscataway, N.J.). […]

H1299 cells [1] = assay: Northern blot analysis of transcripts in TPX-treated H1299 cells; type: cell-based, human
Protocol: Northern Blotting. […] RNA is separated by electrophoresis on denaturing agarose gels and transferred to nylon membranes. Membranes are hybridized with random hexanucleotide-primed ^32P-labeled DNA fragments that are prepared from the RhoB gene, using standard protocols.
A subset of genes on Incyte cDNA arrays that were differentially expressed in response to HDAC inhibition by TPX treatment were analyzed using Northern blot analyses to confirm that the level of these transcripts changed in response to HDAC inhibition. Total RNA that was isolated from TPX-treated H1299 cells for 0, 6 and 18 h was hybridized with probes that were prepared from sequences of 8 differentially expressed transcripts, including G9 sialidase, IPP isomerase, p21^waf1, Interferon γ-inducible IP-30 (GILT), Hsp 70, urokinase plasminogen activator receptor, and KIAA0797. Although there were differences in the absolute changes in transcript levels that were determined by Northern analysis versus the arrays, the directional trend in the differential expression in response to TPX was confirmed for all of the genes tested.
[…] RNA is separated by electrophoresis on denaturing agarose gels and transferred to nylon membranes. […]
Total RNA is isolated from H1299 cells treated for 6 h with 30 nM TPX or DMSO using Trizol reagent (Life Technologies). The RNA samples are analyzed by Northern blots using conventional methods. […]

H1299 cells [2] = assay: Additional microarray analysis of RhoA, RhoB, RhoC expression in TPX-treated H1299 cells; type: cell-based, human; conditions: H1299 cells treated with 30 nm TPX
Protocol: Microarray analysis is performed essentially as described in Welsh, J. B. Cancer Res. 61 5974-8 (2001). Poly (A)+ RNA is prepared from H1299 cells treated with TPX or DMSO for 0, 6, and 24 h. RNA is also prepared from 136 transformed cell lines. Labelled cDNA is prepared and hybridized to HU6800 or U95a oligonucleotide arrays (Affymetrix, Santa Clara, Calif.). The arrays are scanned on an Affymetrix confocal scanner and analyzed with GENECHIP 3.1 software (Affymetrix). T-test of the results is done.

SMILES: O=C(CCCCC[C@@H]1NC(=O)[C@H]2CCCCN2C(=O)[C@H](Cc2ccccc2)NC(=O)[C@H](Cc2ccccc2)NC1=O)C1CO1 (stereo partly shown) [TPX, Trapoxin A] (cyclo(FF[dPip][Aoe(9ξ)]))
- Induction of luciferase activity driven by the RhoB promoter (RhoB promoter; 30 nM TPX 24 h, normalized to DMSO): about 10 fold
- Effect of insertion of three nucleotides (AAA) between CCAAT and TATA boxes on TPX induction (RhoB promoter; 30 nM TPX vs 0.1% DMSO, 24 h): no effect
- Induction of RhoB promoter 5′ deletion constructs (luciferase activity) (RhoB promoter; all constructs generated): induced by TPX to a similar extent
- TPX-induced p21waf1 expression (Western blotting) (p21waf1): decreased
- RhoB protein level (Western analysis) (RhoB): up-regulated
- RhoB mRNA level (Northern analysis) (H1299 cells [1]; 30 nM, 6 h): up-regulated
- Directional trend in differential expression vs arrays (Northern; G9 sialidase, IPP isomerase, p21waf1, IP-30, Hsp 70, UpaR, KIAA0797) (H1299 cells [1]; TPX 0, 6 and 18 h): confirmed
- Expression of RhoA (additional microarray analysis) (H1299 cells [2]): unchanged
- Expression of RhoC (additional microarray analysis) (H1299 cells [2]): unchanged
- RhoB upregulation (additional microarray analysis) (H1299 cells [2]): approximately 8 fold
